Assay results taken from US20240207265A1, “TREATMENT OF CNS DISEASES WITH sGC STIMULATORS” (Tisento Therapeutics Inc., priority 2021, published 2024).

Assays:
[1] = test system: cGMP; test: cGMP concentration in rat CSF after single oral dose (CSF biomarker); format: in vivo
Protocol: Rats were administered a single dose of either vehicle or sGC stimulator (1, 3, 10 or 30 mg/kg). One, two and six hours after administration, CSF samples were collected and analyzed to determine cGMP and compound concentrations and plasma samples were collected and analyzed to determine compound concentration. Each rat was sampled one time or multiple times with 3 or more days in between each dosing. The day before the experiment rats were fasted overnight with ad libitum access to water.
On the day of the experiment, compound and cyclic guanosine monophosphate (cGMP) concentrations in rat CSF was determined following oral dosing. Male CD rats implanted with an intracisternal cannula (250-275 g) were used for these studies. Rats were single housed under controlled conditions of temperature (21±1° C.), relative humidity (36±1%) and placed in a 12-hr light-dark cycle (lights on at 6:00 AM and off at 6:00 PM) room at SmartLabs vivarium (21 Erie Street, Cambridge, MA) under protocol MIL-110. Animals were allowed ad libitum access to chow (LabDiet Prolab Isopro RMH 3000, St. Louis, MO) and water. The rats were dosed with 0 mg/kg (vehicle), 1 mg/kg, 3 mg/kg, 10 mg/kg, or 30 mg/kg of a compound of the invention formulated as a suspension in 0.5% methylcellulose, 0.5% Tween80 or as a solution in MilliQ water. […]
Plasma and CSF samples were collected under isoflurane anesthesia as follows: samples of CSF and blood were collected at 1, 2, and 6 hours post-dosing. […] Plasma and CSF was collected and analyzed for the presence of a compound.
The compound of the invention, cGMP and the internal standard were extracted from plasma and CSF by precipitation. Samples were analyzed using liquid chromatography (LC) with tandem mass spectrometric detection (MS/MS) using electrospray ionization. […] CSF cGMP data were graphed using Graphpad Prism, version 8.4.3 and are expressed as means±S.E.M. Data were analyzed with a Mixed-effects analysis followed by Dunnett's multiple comparison test comparing to vehicle-treated rats within timepoint. […]

[2] = Microdialysis experiments in rat brain; format: in vivo; conditions: 3 mg/kg PO as sodium salt, Sprague Dawley rats
Protocol: The goal of the current study was to evaluate levels of sGC stimulators of the invention in the hippocampus and striatum interstitial fluid (ISF), as well as in the circulating plasma after administration to Sprague Dawley male rats. To do so, rats were implanted with microdialysis probes in the hippocampus and striatum and a jugular vein cannula (JVC). After the collection of one pre-dose ISF sample, animals were dosed with sGC stimulator. Samples were collected for 24 hours through a hippocampal and striatal probe as well as serial plasma sampling collected through the JVC after administration. All collected samples were stored at −80° C. waiting for analysis on compound levels in the dialysate.
Five Sprague Dawley rats pre-cannulated with a jugular vein cannula were used for this study. Upon arrival, rats were group-housed in polycarbonate cages (2-3/cage) and acclimated for at least 3 days prior to commencing studies. Animals were housed in a 12 hr light/dark cycle with room temperature maintained at 22+2° C. and approximately 50% humidity and received food and water ad libitum. Rats were tracked via unique identifying numbers. Experiments were conducted in accordance with protocols approved by the Institutional Animal Care and Use Committee of Charles River Laboratories South San Francisco. […]

Cc1cc(F)c(Cc2nc(-c3ncc(F)c(O)n3)cn3ccnc23)cc1F [Compound I-14, 5-fluoro-2-(8-(2,5-difluoro-4-methylbenzyl)imidazo[1,2-a]pyrazin-6-yl)pyrimidin-4-ol]
concentration of cGMP in rat CSF vs vehicle-treated rats ([1]; 1 mg/kg PO as sodium salt, two hours after dosing): significantly higher cGMP in CSF
concentration of cGMP in rat CSF vs vehicle-treated rats ([1]; 3 mg/kg PO as sodium salt, one and two hours after dosing): significantly higher concentrations of cGMP in the CSF
concentration of cGMP in rat CSF vs vehicle-treated rats ([1]; 10 or 30 mg/kg PO as sodium salt, 1, 2 and 6 hours postdose): significantly higher cGMP in the CSF
side effects of the treatment [2]: No obvious side effects
